Results reported in patent US5219872A, “Compounds of 1,2,5,6-tetrahydropyridin-3-carboxaldehyde oxime which are useful as cholinergic agents” (Roussel UCLAF, priority 1986, dated 1993).
Structures can show the parent of a compound that is named as a salt. Where two headings read alike, the source gives them in different places.

Key:
[1] = test system: patients having a memory defect; conditions: intravenous route; Sitaram 1978, Christie 1981; cited from earlier work
[2] = test system: isolated ileum from guinea-pigs; assay: Isolated guinea-pig ileum: contracting (agonist) activity; conditions: Cavia porcellus, read-out: pD2 (negative logarithm of the dose which produces 50% of the maximum effect) (converted)
Protocol: Sections of ileum were removed from guinea-pigs killed by decapitation. […] The contracting effect of the compounds was detected, with an isometric transducer connected to a recorder. The products under test were added at scalar concentrations between 1×10^-3 and 1×10^-8 moles.
The agonist activity was expressed in pD2 (negative logarithm of the dose which produces 50% of the maximum effect.)

[3] = cited from earlier work
[4] = Duration of action: variations of the body temperature; type: in vivo, mouse; conditions: dose mg/kg: Example 3 0,15, 7 1,25
Protocol: (§1) Male mice (CD1 Charles Rivers) were used, weighing 25-30 g, fasting for 6 hours. The body temperature was noted by means of a thermo-couple, inserted in the rectum for about 1.5 cm and connected to an electric temperature indicator.
(§2) The degree of hypothermia was evaluated as the difference between the treated and the control animals, and the dose was determined which was necessary to reduce the body temperature by 1° C.
The duration of action of the products was evaluated using doses of equal ability to cause a reduction of body temperature of 1°-1,5° C.

[5] = Hypothermic activity (central cholinomimetic activity); type: in vivo; conditions: Mus musculus, read-out: Effective dose (-1° C.)
Protocol: as §1, §2

[6] = Diarrhoea activity; conditions: rat, in vivo, po
Protocol: Male rats (CD1 Charles Rivers) were used, weighing 25-30 g, fasting for 6 hours. The compounds were administered by oral route, by means of an oesophagic probe, dissolved at 0.5% in methocel. The controls received only the vehicle (20 ml/Kg).
1: faeces moderately soft with or without formation of a halo of humidity
2: faeces moderately soft with formation of a well defined circle of humidity,
3: faeces soft, with formation of a large circle of humidity,
4: faeces without consistency with formation of a very large circle of humidity.

[7] = test system: isolated ileum from guinea-pigs (response induced with acetylcholine); assay: Isolated guinea-pig ileum: antagonist activity against acetylcholine; conditions: Cavia porcellus; antagonist activity vs acetylcholine; Tyrode's solution 37° C.; products added between 1×10^-3 and 1×10^-8 moles; read-out: ED50 (dose inhibiting 50% of the maximum response induced with acetylcholine)
Protocol: ILEUM FROM GUINEA-PIGS Sections of ileum were removed from guinea-pigs killed by decapitation. The isolated ileum was suspended in a bath containing 10 ml of Tyrode's solution thermo-regulated at 37° C. and aerated with a mixture of O2 (95%) and CO2 (5%). The contracting effect of the compounds was detected, with an isometric transducer connected to a recorder. The products under test were added at scalar concentrations between 1×10^-3 and 1×10^-8 moles. The products endowed with contracting activity were checked against atropine or hexamethonium to establish whether the activity was of muscarine type or nicotine type. The possible antagonist activity of the products was tested against acetylcholine.

[8] = in vivo; conditions: rat, oral route, male rats CD1, fasting 16 hours, mortality in seven days
Protocol: Male rats (CD1 Charles Rivers) were used, weighing […], fasting for 16 hours. […] The mortality was checked in the seven days following the treatment.

[9] = os, 30 minutes, 8 0,5, 10 0,5, arecoline HBr 200, ** p < 0,01 vs controls (all values)
[10] = os, 60 minutes, 8 0,5, 10 0,5, arecoline HBr 200, ** p < 0,01 vs controls (all values)
[11] = os, 120 minutes, 8 0,5, 10 0,5, arecoline HBr 200, ** p < 0,01 for Example 7 only
[12] = os, 180 minutes, 8 0,5, 10 0,5, arecoline HBr 200
[13] = sc, 30 minutes, 8 1, 10 0,75, arecoline HBr 3,5, ** p < 0,01 vs controls (all values)
[14] = sc, 60 minutes, 8 1, 10 0,75, arecoline HBr 3,5, ** p < 0,01 for Examples 3, 7, 8, 10
[15] = sc, 120 minutes, 8 1, 10 0,75, arecoline HBr 3,5, ** p < 0,01 for Example 7 only
[16] = sc, 180 minutes, 8 1, 10 0,75, arecoline HBr 3,5
[17] = agonist activity, Tyrode's solution 37° C.
[18] = sc, sub-cutaneous, dose to reduce the body temperature by 1° C.
[19] = oral, dose to reduce the body temperature by 1° C.
[20] = os, 0 minutes, 8 0,5, 10 0,5, arecoline HBr 200

SMILES	variation of the body temperature [4, 9]	variation of the body temperature [4, 10]	variation of the body temperature [4, 11]	variation of the body temperature [4, 13]	variation of the body temperature [4, 14]	variation of the body temperature [4, 15]	variation of the body temperature [4, 16]	EC50 [2, 17] [µM]	ED (-1 C) [5, 18] [mg/kg]	ED (-1 C) [5, 19] [mg/kg]	ED50 [6] [mg/kg]	IC50 [7] [µM]	LD50 at 168 h [8] [mg/kg]	other results
COC(=O)C1=CCCN(C)C1 [Arecoline]	–	–	–	–	–	–	–	–	–	–	–	–	–	effect on patients having a memory defect [1]: positive effect; EC50 [2]: 0.331 µM; duration of action ([3]; in vivo): short duration of action; activity by oral route ([3]; oral route): very weak activity
CCN1CCC=C(C=NOC)C1.Cl [Example 7, 1-ethyl-1,2,5,6-tetrahydro-pyridin-3-carboxaldehyde-O-methyloxime hydrochloride]	-1,1 °C	-1,1 °C	-0,6 °C	-0,5 °C	-1,0 °C	-0,6 °C	-0,1 °C	> 1000	1.16	0.97	10	200	–	variation of the body temperature [4, 12]: -0,2 °C
CC(=O)ON=CC1=CCCN(C)C1 [Example 5, 1-methyl-1,2,5,6-tetrahydropyridin-3-carboxaldehyde-0-acetyl-oxime]	–	–	–	–	–	–	–	51.3	–	39	> 100	–	500	–
CON=CC1=CCCN(C)C1 [Example 1, 1-methyl-1,2,5,6-tetrahydropyridin-3-carboxyaldehyde-O-methyloxime hydrochloride]	–	–	–	–	–	–	–	0.525	0.14	0.46	0.6	–	–	–
C#CCON=CC1=CCCN(C)C1 [Example 12, 1-methyl-1,2,5,6-tetrahydropyridin-3-carboxaldehyde-O-propargyloxime]	–	–	–	–	–	–	–	0.479	0.63	2	5.5	–	60	–
CCCN1CCC=C(C=NOC)C1 [Example 8]	-1,5 °C	-1,3 °C	-0,4 °C	-0,7 °C	-1,2 °C	-0,2 °C	-0,1 °C	25.1	0.83	0.34	1.7	–	100	–
C=CCN1CCC=C(C=NOC)C1 [Example 10, 1-allyl-1,2,5,6-tetrahydropyridin-3-carboxaldehyde-O-methyloxime]	-1,5 °C	-0,7 °C	-0,1 °C	-0,8 °C	-1,0 °C	-0,1 °C	+0,1 °C	15.8	0.86	0.34	1.2	–	175	variation of the body temperature [4, 20]: -0,1 °C; variation of the body temperature [4, 12]: +0,2 °C
CCCCN1CCC=C(C=NOC)C1 [Example 9, 1-butyl-1,2,5,6-tetrahydropyridin-3-carboxaldehyde-O-methyloxime]	–	–	–	–	–	–	–	> 1000	0.85	0.79	3.5	230	30	–
CN(C)CCON=CC1=CCCN(C)C1 [Example 6, 3-[2-(N,N-dimethylaminoethoxyimino)-methyl]-1-methyl-1,2,5,6-tetrahydropyridine]	–	–	–	–	–	–	–	148	–	135	> 100	–	750	–
CCON=CC1=CCCN(C)C1.Cl [Example 2, 1-methyl-1,2,5,6-tetrahydropyridin-3-carboxaldehyde-O-ethyloxime hydrochloride]	–	–	–	–	–	–	–	> 1000	11	13	50	180	250	–
CON=CC1=CCCNC1.Cl [Example 3, 1,2,5,6-tetrahydropyridin-3-carboxaldehyde-O-methyloxime Hydrochloride]	-1,5 °C	-0,8 °C	-0,2 °C	-1,2 °C	-0,8 °C	-0,2 °C	-0,1 °C	0.263	0.12	0.11	0.15	–	75	variation of the body temperature [4, 20]: +0.1 °C
CC(C)ON=CC1=CCCN(C)C1 [Example 4, O-isopropyl-N-methyl-1,2,5,6-tetrahydropyridin-3-carboxaldehyde oxime hydrochloride]	–	–	–	–	–	–	–	> 1000	–	40	> 100	11	350	–
CCCCCN1CCC=C(C=NOC)C1 [Example 11, 1-pentyl-1,2,5,6-tetrahydropyridin-3-carboxaldehyde-O-methyloxime]	–	–	–	–	–	–	–	> 1000	4	3	5	160	175	–
COC(=O)C1=CCCN(C)C1 [Arecoline HBr, reference compound]	-1,1 °C	-1,0 °C	-0,2 °C	-1,5 °C	-0,1 °C	+0,2 °C	+0,2 °C	–	–	–	35	–	–	variation of the body temperature [4, 20]: +0,1 °C; variation of the body temperature [4, 12]: -0,1 °C; variation of the body temperature ([4]; sc, 0 minutes, 8 1, 10 0,75, arecoline HBr 3,5): -0,1 °C; ED (-1 C) ([5]; po): 194 mg/kg; ED (-1 C) ([5]; sc): 3 mg/kg
